Source: patent publication US5484780A, “Angiotensin II antagonists” (Eli Lilly and Company, priority 1994, dated 1996)

Molecular target: T1, angiotensin-induced vasoconstriction (rabbit aorta) (Oryctolagus cuniculus, UniProt P34976)
T1 construct: The thoracic aortas were removed and cleaned of excess fat and connective tissue; from tissue; host or cells: thoracic aorta rings of New Zealand white rabbits (animals from Hazelton)
T1 sequence (P34976 1-359): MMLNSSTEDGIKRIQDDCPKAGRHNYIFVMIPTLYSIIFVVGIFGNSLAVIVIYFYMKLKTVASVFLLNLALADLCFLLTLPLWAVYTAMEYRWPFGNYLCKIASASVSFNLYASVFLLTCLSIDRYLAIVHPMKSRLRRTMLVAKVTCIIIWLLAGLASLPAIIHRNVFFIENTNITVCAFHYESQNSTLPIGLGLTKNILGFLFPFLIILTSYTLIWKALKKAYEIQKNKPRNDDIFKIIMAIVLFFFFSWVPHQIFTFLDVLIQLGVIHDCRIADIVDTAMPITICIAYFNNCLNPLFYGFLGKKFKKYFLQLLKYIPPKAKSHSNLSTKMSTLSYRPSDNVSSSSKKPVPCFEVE
Assay: Rabbit Aorta Test System: antagonism of angiotensin II contraction of aortic rings
Set-up: species or system New Zealand white rabbits
Conditions: contraction to AII 10^-10 to 10^-7 M, 30 minutes incubation with compound; pA2 = -log KB
Description: As previously discussed, the compounds of Formula I are potent effective antagonists of angiotensin II. The ability of representative compounds of Formula I to block angiotensin II receptor binding was determined using the adrenal glomerulosa assay. The ability to antagonize angiotensin-induced vasoconstriction was evaluated in the rabbit aorta test system.
New Zealand white rabbits (Hazelton, 2-3 kg) were sacrificed by cervical dislocation. The thoracic aortas were removed and cleaned of excess fat and connective tissue. Rings of tissue (3 mm wide) were mounted in 10 ml tissue baths between 2 L-shaped stainless steel hooks. The lower hook was attached to a stationary rod. The upper hook was attached to a force displacement transducer (Grass model FT.03). The bath chambers were maintained at 37° C., aerated with 95% 02 /5% C02, and contained physiological solution of the following composition (mM): NaCl, 117; glucose, 5.6; NaH2 PO4, 1.0; MgS04, 0.7; KCl, 5.2; CaCl2, 1.8; NaHCO3, 26; and phentolamine HCl, 0.003.
Rings were equilibrated for 1 hour with 2 g of tension. During the equilibration period, the tissues were washed by overflow every 15 minutes. Rings were then exposed to 10^-8 M angiotensin II (AII) and were allowed to contract until a steady state was reached. Tissues were then washed every 15 minutes for 1 hour. This was repeated every hour until the AII response stabilized. A cumulative concentration response curve to AII (10^-10 to 10^-7 M) was then obtained. At the conclusion of the concentration response curve, tissues were washed every 2 minutes until baseline tension was reached, then every 15 minutes for 30 minutes. Compounds were added in a volume of 10 μl DMSO and allowed to incubate for 30 minutes before repeating the concentration response curve to AII. Contractions to AII were expressed as a percent of the maximum contraction obtained in the control curve (the first AII concentration response curve). EC50 's (concentration that contracted the tissues to 1/2 the control maximum) for each curve were calculated using a 4 parameter logistics model (NonLin, SAS Institute). Potency data for each compound tested are expressed as the pA2 (defined as-log KB, where KB =[molar concentration of antagonist]/[(EC50 AII with antagonist/EC50 AII without antagonist)-1]).

Compound	Kb [nM]	Rabbit Aorta (pA2)
CCCCCC[C@H](C(=O)N1C[C@@H](Oc2ccc(OCCCC)cc2)C[C@H]1C(=O)O)n1cnc(NC(=O)c2ccccc2S(=O)(=O)O)c1 [Example 50]	2	–
CCCCCC[C@H](C(=O)N1C[C@@H](Oc2ccc(OCC(C)C)cc2)C[C@H]1C(=O)O)n1cnc(NC(=O)c2ccccc2S(=O)(=O)O)c1 [Example 51]	12.6	–
CCCCCC[C@H](C(=O)N1C[C@@H](Oc2ccc(OC(C)(C)C)cc2)C[C@H]1C(=O)O)n1cnc(NC(=O)c2ccccc2S(=O)(=O)O)c1 [Example 52]	3.98	–
CCCCCC[C@H](C(=O)N1C[C@@H](Oc2ccc(OC(F)(F)F)cc2)C[C@H]1C(=O)O)n1cnc(NC(=O)c2ccccc2S(=O)(=O)O)c1 [Example 53]	10	–
CCCCCC[C@H](C(=O)N1C[C@@H](Oc2ccc(OC3CCCC3)cc2)C[C@H]1C(=O)O)n1cnc(NC(=O)c2ccccc2S(=O)(=O)O)c1 [Example 54]	2.51	–
CCCCCC[C@H](C(=O)N1C[C@@H](Oc2ccc(OCC3CC3)cc2)C[C@H]1C(=O)O)n1cnc(NC(=O)c2ccccc2S(=O)(=O)O)c1 [Example 55]	0.398	–
CCCCCC[C@H](C(=O)N1C[C@@H](Oc2ccc(OCC3CCCCC3)cc2)C[C@H]1C(=O)O)n1cnc(NC(=O)c2ccccc2S(=O)(=O)O)c1 [Example 56]	31.6	–
CCCCCC[C@H](C(=O)N1C[C@@H](Oc2ccc(OCC(=O)O)cc2)C[C@H]1C(=O)O)n1cnc(NC(=O)c2ccccc2S(=O)(=O)O)c1 [Example 57]	0.316	–
CCCCCC[C@H](C(=O)N1C[C@@H](Oc2ccc(OC(C)(C)C(=O)O)cc2)C[C@H]1C(=O)O)n1cnc(NC(=O)c2ccccc2S(=O)(=O)O)c1 [Example 58]	0.794	–
CCCCCC[C@H](C(=O)N1C[C@@H](Oc2ccc3c(c2)OCO3)C[C@H]1C(=O)O)n1cnc(NC(=O)c2ccccc2S(=O)(=O)O)c1 [Example 59]	0.631	–
CCCCCC[C@H](C(=O)N1C[C@@H](Oc2ccc(OC)c(OC)c2)C[C@H]1C(=O)O)n1cnc(NC(=O)c2ccccc2S(=O)(=O)O)c1 [Example 60]	15.8	–
CCCCCC[C@H](C(=O)N1C[C@@H](Oc2ccc3ccccc3c2)C[C@H]1C(=O)O)n1cnc(NC(=O)c2ccccc2S(=O)(=O)O)c1 [Example 61]	3.16	–
CCCCCC[C@H](C(=O)N1C[C@@H](Oc2ccc3ccc(OC)cc3c2)C[C@H]1C(=O)O)n1cnc(NC(=O)c2ccccc2S(=O)(=O)O)c1 [Example 62]	1	–
CCCCCC[C@H](C(=O)N1C[C@@H](Oc2ccc3ccc(C(=O)O)cc3c2)C[C@H]1C(=O)O)n1cnc(NC(=O)c2ccccc2S(=O)(=O)O)c1 [Example 63]	1.58	–
CCCCCC[C@H](C(=O)N1C[C@@H](Oc2cccc3ccccc23)C[C@H]1C(=O)O)n1cnc(NC(=O)c2ccccc2S(=O)(=O)O)c1 [Example 64]	2000	–
CCCCCC[C@H](C(=O)N1C[C@@H](Oc2ccc3oc(C)cc3c2)C[C@H]1C(=O)O)n1cnc(NC(=O)c2ccccc2S(=O)(=O)O)c1 [Example 69]	0.501	–
CCCCCC[C@H](C(=O)N1C[C@@H](Oc2ccc3oc(C(=O)O)cc3c2)C[C@H]1C(=O)O)n1cnc(NC(=O)c2ccccc2S(=O)(=O)O)c1 [Example 70]	0.501	–
CCCCCC[C@H](C(=O)N1C[C@@H](Oc2ccc3oc4ccccc4c3c2)C[C@H]1C(=O)O)n1cnc(NC(=O)c2ccccc2S(=O)(=O)O)c1 [Example 71]	25.1	–
CCCCCC[C@H](C(=O)N1C[C@@H](Oc2ccc3sccc3c2)C[C@H]1C(=O)O)n1cnc(NC(=O)c2ccccc2S(=O)(=O)O)c1 [Example 72]	3.16	–
CCCCCC[C@H](C(=O)N1C[C@@H](Oc2cccnc2)C[C@H]1C(=O)O)n1cnc(NC(=O)c2ccccc2S(=O)(=O)O)c1 [Example 73]	158	–
CCCCCC[C@H](C(=O)N1C[C@@H](Oc2ccon2)C[C@H]1C(=O)O)n1cnc(NC(=O)c2ccccc2S(=O)(=O)O)c1 [Example 74]	100	–

Compound	Kb [nM]	Rabbit Aorta (pA2)
CCCCCC[C@H](C(=O)N1C[C@@H](Oc2ccc(OC)cc2)C[C@H]1C(=O)O)n1cnc(NC(=O)c2ccccc2-c2nn[nH]n2)c1 [Example 75]	1	–
CCCCCC[C@H](C(=O)N1C[C@@H](Oc2ccc(OC(C)(C)C)cc2)C[C@H]1C(=O)O)n1cnc(NC(=O)c2ccccc2-c2nn[nH]n2)c1 [Example 76]	31.6	–
CCCCCC[C@H](C(=O)N1C[C@@H](Oc2ccc(CC(=O)O)cc2)C[C@H]1C(=O)O)n1cnc(NC(=O)c2ccccc2-c2nn[nH]n2)c1 [Example 77]	1.58	–
CCCCCC[C@H](C(=O)N1C[C@@H](Oc2ccc(C(=O)O)cc2)C[C@H]1C(=O)O)n1cnc(NC(=O)c2ccccc2-c2nn[nH]n2)c1 [Example 78]	3.16	–
CCCCCC[C@H](C(=O)N1C[C@@H](Oc2ccc(OCC(=O)O)cc2)C[C@H]1C(=O)O)n1cnc(NC(=O)c2ccccc2-c2nn[nH]n2)c1 [Example 79]	0.501	–
CCCCCC[C@H](C(=O)N1C[C@@H](Oc2ccc(O)cc2)C[C@H]1C(=O)O)n1cnc(NC(=O)c2cccc(O)c2C(=O)O)c1 [Example 81]	1.58	–
CCCCCC[C@H](C(=O)N1C[C@@H](Oc2ccc(OC)cc2)C[C@H]1C(=O)O)n1cnc(NC(=O)c2cccc(O)c2C(=O)O)c1 [Example 82]	0.316	–
CCCCCC[C@H](C(=O)N1C[C@@H](Oc2ccc(OCC)cc2)C[C@H]1C(=O)O)n1cnc(NC(=O)c2cccc(O)c2C(=O)O)c1 [Example 83]	–	8.9
CCCCCC[C@H](C(=O)N1C[C@@H](Oc2ccc(OCCCC)cc2)C[C@H]1C(=O)O)n1cnc(NC(=O)c2cccc(O)c2C(=O)O)c1 [Example 84]	10	–
CCCCCC[C@H](C(=O)N1C[C@@H](Oc2ccc(C(=O)O)cc2)C[C@H]1C(=O)O)n1cnc(NC(=O)c2cccc(O)c2C(=O)O)c1 [Example 85]	1.26	–
CCCCCC[C@H](C(=O)N1C[C@@H](Oc2ccc(CC(=O)O)cc2)C[C@H]1C(=O)O)n1cnc(NC(=O)c2cccc(O)c2C(=O)O)c1 [Example 86]	0.794	–
CCCCCC[C@H](C(=O)N1C[C@@H](Oc2ccc(C#N)cc2)C[C@H]1C(=O)O)n1cnc(NC(=O)c2cccc(O)c2C(=O)O)c1 [Example 87]	31.6	–
CCCCCC[C@H](C(=O)N1C[C@@H](Oc2ccc3c(c2)CCC3)C[C@H]1C(=O)O)n1cnc(NC(=O)c2cccc(O)c2C(=O)O)c1 [Example 88]	6.31	–
CCCCCC[C@H](C(=O)N1C[C@@H](Oc2ccc3ccccc3c2)C[C@H]1C(=O)O)n1cnc(NC(=O)c2cccc(O)c2C(=O)O)c1 [Example 89]	31.6	–
CCCCCC[C@H](C(=O)N1C[C@@H](Oc2ccc(OC)c(OC)c2)C[C@H]1C(=O)O)n1cnc(NC(=O)c2cccc(O)c2C(=O)O)c1 [Example 90]	20	–
CCCCCCC(C(=O)N1C[C@@H](Oc2ccc(CP(=O)(O)O)cc2)C[C@H]1C(=O)O)n1cnc(NC(=O)c2ccccc2S(=O)(=O)O)c1 (some centres unmarked) [Example 91]	–	10.1
CCCCCC[C@H](C(=O)N1C[C@@H](Oc2ccc(NS(C)(=O)=O)cc2)C[C@H]1C(=O)O)n1cnc(NC(=O)c2ccccc2S(=O)(=O)O)c1 [Example 92, 1-[1-oxo-2-[4-(2-sulfobenzoyl)amino-1H-imidazol-1-yl]octyl]-4-cis-[(4-N-methanesulfonamido)-phenoxy]-L-proline]	0.126	–
CCCCCC[C@H](C(=O)N1C[C@@H](Oc2ccc(NS(=O)(=O)C(F)(F)F)cc2)C[C@H]1C(=O)O)n1cnc(NC(=O)c2ccccc2S(=O)(=O)O)c1 [Example 93, (R)-1-[1-oxo-2-[4-(2-sulfobenzoyl)amino-1H-imidazol-1-yl]octyl]-4-(cis)-((4-N-triflouromethanesulfonamido)-phenoxy)-L-proline]	–	8.9
CCCCCC[C@H](C(=O)N1C[C@@H](Oc2ccc(N(C)S(C)(=O)=O)cc2)C[C@H]1C(=O)O)n1cnc(NC(=O)c2ccccc2S(=O)(=O)O)c1 [Example 94, (R)-1-[1-oxo-2-[4-(2-sulfobenzoyl)amino-1H-imidazol-1-yl]octyl]-4-(cis)-[(4-N,N-methyl-methanesulfonamido)-phenoxy]-L-proline]	0.251	–
CCCCCC[C@H](C(=O)N1C[C@@H](Oc2ccc(CNS(C)(=O)=O)cc2)C[C@H]1C(=O)O)n1cnc(NC(=O)c2ccccc2S(=O)(=O)O)c1 [Example 95]	0.158	–
